Like-named read-outs stand apart in the source and are kept apart here. Starred links: 1 amine or outer side, 2 acyl side, 3 side chain; linkers in the order of their positions; H or OH if unused. Positions of bridges follow the written chain, without caps; N, C: chain ends. Non-standard residues stand in square brackets, D forms with d. Residues, ends and D or L forms follow the SMILES beside them. Phe(3-Me) = Cc1cccc(C[C@H](N)C(=O)O)c1; γGlu = O=C(O)[C@H](CCC(=O)[*:2])N[*:1]; βAsp = O=C(O)[C@H](CC(=O)[*:2])N[*:1]; Ahp(2) = CCCCC[C@H](N)C(=O)O; NMeNle = CCCC[C@H](NC)C(=O)O; Tle = CC(C)(C)[C@H](N)C(=O)O; NMeS = CN[C@@H](CO)C(=O)O; NHexGly = CCCCCCNCC(=O)O; Nle = CCCC[C@H](N)C(=O)O; Orn = NCCC[C@H](N)C(=O)O; Aun = NCCCCCCCCCCC(=O)O; AEEA = NCCOCCOCC(=O)O
Target: T1, mouse VISTA (mVISTA) (Mus musculus, UniProt Q9D659)
T1 construct: expressed in transfected cells; host or cells: Human embryonic kidney 293T cells
T1 sequence (Q9D659 33-308): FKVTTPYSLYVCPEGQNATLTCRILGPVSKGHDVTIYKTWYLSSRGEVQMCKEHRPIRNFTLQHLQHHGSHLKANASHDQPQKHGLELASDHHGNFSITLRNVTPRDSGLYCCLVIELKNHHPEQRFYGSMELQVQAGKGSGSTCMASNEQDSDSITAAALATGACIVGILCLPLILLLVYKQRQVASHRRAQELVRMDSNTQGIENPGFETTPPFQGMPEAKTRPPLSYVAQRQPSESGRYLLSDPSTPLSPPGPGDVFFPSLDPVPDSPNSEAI
Test: Cell-Based Binding High-Content Assay For mVISTA (HC CBA mVISTA)
Outline: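 293T cells expressing mouse VISTA, with compounds added either after seeding ("no wash") or before seeding and then washed out after 1 h. Biotinylated peptide 2 nM for 30 min at room temperature, then detection with Alexa 647–streptavidin. After fixation with Hoechst stain, plates were high-content imaged; IC50 from four-parameter logistic fit.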

[1] = cell-based binding high-content assay, mVISTA, read-out: HC CBA miPr ISTA IC50

Compound	IC50 (read-out: HC CBA mVISTA IC50)	IC50 [1]	other results
CCCCCCN1CC(=O)N[C@@H](Cc2ccc(O)cc2)C(=O)N[C@@H](CC(C)C)C(=O)N[C@@H](CC(N)=O)C(=O)N[C@@H](CCCNC(=N)N)C(=O)N[C@@H](CC(C)C)C(=O)N[C@@H](CCCCC)C(=O)N2CCC[C@H]2C(=O)N[C@@H](C(C)C)C(=O)N[C@@H](CO)C(=O)N[C@H](C(=O)N[C@@H](CCC(=O)NCCCCCCCCCCC(=O)O)C(=O)O)CSCC(=O)N[C@@H](Cc2ccccc2)C(=O)N[C@@H](Cc2ccc(O)cc2)C(=O)N[C@@H](CC(=O)O)C1=O [Example 2127] ({CH2CO}-FYD[NHexGly]YLNRL[Ahp(2)]PVSC[γGlu][Aun]-OH; thioether N-14)	15.9 nM	–	–
CCCCCCN1CC(=O)N[C@@H](Cc2ccc(O)cc2)C(=O)N[C@@H](CCCC)C(=O)N[C@@H](CC(N)=O)C(=O)N[C@@H](CCCNC(=N)N)C(=O)N(C)[C@@H](CCCC)C(=O)N[C@@H](CCCCC)C(=O)N2CCC[C@H]2C(=O)N[C@@H](C(C)(C)C)C(=O)N[C@@H](CO)C(=O)N[C@H](C(=O)N[C@@H](CC(=O)NCCOCCOCC(=O)NCCCCCCCCCCC(=O)O)C(=O)O)CSCC(=O)N[C@@H](Cc2ccccc2)C(=O)N[C@@H](Cc2cccc(C)c2)C(=O)N[C@@H](CC(=O)O)C1=O [Example 2189] ({CH2CO}-F[Phe(3-Me)]D[NHexGly]Y[Nle]NR[NMeNle][Ahp(2)]P[Tle]SC[βAsp][AEEA][Aun]-OH; thioether N-14)	29 nM	–	–
CCCCCCN1CC(=O)N[C@@H](Cc2ccc(O)cc2)C(=O)N[C@@H](CCCCC)C(=O)N[C@@H](CC(N)=O)C(=O)N[C@@H](CCCNC(=N)N)C(=O)N(C)[C@@H](CCCC)C(=O)N[C@@H](CCCCC)C(=O)N2CCC[C@H]2C(=O)N[C@@H](C(C)C)C(=O)N[C@@H](CC(=O)O)C(=O)N[C@H](C(=O)NCC(=O)O)CSCC(=O)N[C@@H](Cc2ccccc2)C(=O)N[C@@H](Cc2c[nH]c3ccccc23)C(=O)N[C@@H](CC(=O)O)C1=O [Example 1386] ({CH2CO}-FWD[NHexGly]Y[Ahp(2)]NR[NMeNle][Ahp(2)]PVDCG-OH; thioether N-14)	8.8 nM	–	–
CCCCCCN1CC(=O)N[C@@H](Cc2ccc(O)cc2)C(=O)N[C@@H](CC(C)C)C(=O)N[C@@H](CC(N)=O)C(=O)N[C@@H](CCCNC(=N)N)C(=O)N(C)[C@@H](CO)C(=O)N[C@@H](CCCCC)C(=O)N2CCC[C@H]2C(=O)N[C@@H](C(C)(C)C)C(=O)N[C@@H](CC(=O)O)C(=O)N[C@H](C(=O)N[C@@H](CC(=O)NCCOCCOCC(=O)N[C@@H](CC(=O)O)C(=O)NCCOCCOCC(=O)NCCCCCCCCCCC(=O)O)C(=O)O)CSCC(=O)N[C@@H](Cc2ccccc2)C(=O)N[C@@H](Cc2c[nH]c3ccccc23)C(=O)N[C@@H](CC(=O)O)C1=O [compound 2034] ({CH2CO}-FWD[NHexGly]YLNR[NMeS][Ahp(2)]P[Tle]DC[βAsp][AEEA]D[AEEA][Aun]-OH; thioether N-14)	–	43.5 nM	–
CCCCCCN1CC(=O)N[C@@H](Cc2ccc(O)cc2)C(=O)N[C@@H](CCCC)C(=O)N[C@@H](CC(=O)O)C(=O)N[C@@H](CCCN)C(=O)N[C@@H](CC(C)C)C(=O)N[C@@H](CCCCC)C(=O)N2CCC[C@H]2C(=O)N[C@@H](C(C)C)C(=O)N[C@@H](CO)C(=O)N[C@H](C(=O)NCC(N)=O)CSCC(=O)N[C@@H](Cc2ccccc2)C(=O)N[C@@H](Cc2ccc(O)cc2)C(=O)N[C@@H](CC(=O)O)C1=O [Example 1048] ({CH2CO}-FYD[NHexGly]Y[Nle]D[Orn]L[Ahp(2)]PVSCG-NH2; thioether N-14)	–	–	IC50 (293T cells expressing mouse VISTA, competition with biotinylated peptide (2 nM), read-out: HC CBA mVISTA IC50): 22.4 nM
CCCCCCN1CC(=O)N[C@@H](Cc2ccc(O)cc2)C(=O)N[C@@H](CC(C)C)C(=O)N[C@@H](CC(N)=O)C(=O)N[C@@H](CCCNC(=N)N)C(=O)N[C@@H](CC(C)C)C(=O)N[C@@H](CCCCC)C(=O)N2CCC[C@H]2C(=O)N[C@@H](C(C)C)C(=O)N[C@@H](C(C)C)C(=O)N[C@H](C(=O)NCC(=O)NCCOCCOCC(=O)N[C@@H](CC(=O)O)C(=O)NCCOCCOCC(=O)NCCCCCCCCCCC(=O)O)CSCC(=O)N[C@@H](Cc2ccccc2)C(=O)N[C@@H](Cc2cccc(C)c2)C(=O)N[C@@H](CC(=O)O)C1=O [compound 2009] ({CH2CO}-F[Phe(3-Me)]D[NHexGly]YLNRL[Ahp(2)]PVVCG[AEEA]D[AEEA][Aun]-OH; thioether N-14)	–	38.9 nM	–

— patent publication US20240218022A1, “ANTI-VISTA MACROCYCLIC PEPTIDES AND COMPOSITIONS” (BRISTOL-MYERS SQUIBB COMPANY, priority 2022, published 2024)
